Results as given in patent US20220017486A1, “DOCK1-INHIBITING COMPOUND AND USE THEREOF” (KYUSHU UNIVERSITY, NATIONAL UNIVERSITY CORPORATION, priority 2018, published 2022).
pIC50: −log10 of the molar value.

Key:
[1] = tested on: mouse lung carcinoma cell line (3LL); assay: Tumor growth of subcutaneously transplanted mouse lung carcinoma cells; type: in vivo, C57BL/6 mice; conditions: 3LL s.c. in mice, 0.25 mg/300 μL, day 26 to day 29
Protocol: The mouse lung carcinoma cell line (3LL) was suspended in 200 μL of PBS(−), and transplanted (5×10^5 cells per mouse) into the dorsal subcutaneous region of C57BL/6 mice (6 weeks old). To a 6:1:1 mixture of PBS/Cremophor EL/ethanol, RT-22 as a representative of the compounds of the present invention was added to a concentration of 0.25 mg/300 μL, and the resulting mixture was loaded into an SMP-300 micro infusion pump (iPRECIO), which was subcutaneously implanted on the previous day of the transplantation, to perform continuous intravenous administration (n=5 mice). The control group was only administered with an equivalent volume of a solvent (a 6:1:1 mixture of PBS/Cremophor EL/ethanol) (n=6 mice). The transverse and longitudinal diameters of the tumor mass were measured over time for a period of 4 weeks from the start of administration, and the tumor volume (V) was calculated according to the formula: V=π/6x√((transverse diameter×longitudinal diameter)^3).

DOCK1 (DHR-2 domain) = molecular target: T1, DOCK1 (DHR-2 domain) (Homo sapiens, UniProt Q14185); assay: In vitro GEF assay: Rac activation by DOCK1 DHR-2 domain; type: biochemical, mice and humans
T1 construct: polypeptide fragments corresponding to the DHR-2 domain of DOCK1 or DOCK2 from mice and humans; Histidine-SUMO (N); made in house; host or cells: E. coli Arctic express (DE3)
T1 sequence (Q14185 1207-1617 limits assumed): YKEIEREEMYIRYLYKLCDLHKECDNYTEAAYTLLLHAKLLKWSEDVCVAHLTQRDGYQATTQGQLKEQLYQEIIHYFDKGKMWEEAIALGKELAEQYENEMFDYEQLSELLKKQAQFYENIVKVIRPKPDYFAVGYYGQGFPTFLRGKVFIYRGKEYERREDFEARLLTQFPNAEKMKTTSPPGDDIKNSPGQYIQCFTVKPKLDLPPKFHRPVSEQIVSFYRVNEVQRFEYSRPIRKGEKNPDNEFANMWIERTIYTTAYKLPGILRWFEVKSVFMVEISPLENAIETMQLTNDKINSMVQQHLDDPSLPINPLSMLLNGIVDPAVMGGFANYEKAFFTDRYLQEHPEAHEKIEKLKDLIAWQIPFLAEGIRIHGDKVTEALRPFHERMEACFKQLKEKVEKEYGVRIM
Protocol: DOCK1 and DOCK2, i.e., DOCK-A subfamily members, both activate Rac by catalyzing the GTP-GDP exchange reaction for Rac via their DHR-2 domains. Therefore, in this Pharmacological Test, the inhibitory effect of the compounds of the present invention on Rac activation by DOCK1 or DOCK2 was assessed in an in vitro GEF assay by using polypeptide fragments corresponding to the DHR-2 domain of DOCK1 or DOCK2 from mice and humans. The in vitro GEF assay was performed using a labeled GTP (Bodipy-FL-GTP, Invitrogen), which has a property of increasing the fluorescence intensity when bound to Rac.
The polypeptide fragments corresponding to the DHR-2 domain of DOCK1 or DOCK2 were prepared by expression in E. coli Arctic express (DE3) cells as N-terminal. Histidine-SUMO tag-fused recombinant proteins, followed by purification by affinity column chromatography on nickel-NTA columns.
Rac was prepared by expression in E. coli BL21 (DE3) cells as an N-terminal GST tag-fused recombinant protein, followed by purification by affinity column chromatography on glutathione-Sepharose columns.
Each of the polypeptide fragments corresponding to the DHR-2 domain of DOCK1 or DOCK2, and a predetermined concentration of each test compound (the compounds of the present invention: 33 types of compounds; and comparative compound: TBOPP) dissolved in DMSO were incubated in a reaction solution A (pH 7.0), which contained 20 mM of MES-NaOH, 150 mM of NaCl, 10 mM of MgCl2, and 20 μM of GDP for 20 minutes at room temperature while being shielded from light to thus prepare GEF pretreated products. The final concentration of DMSO was adjusted to 1 mass % in all of the test samples. For a control test, a GEF pretreated product (control) was prepared by incubation in the same manner using DMSO with no test compounds, instead of the DMSO used above in which each test compound was dissolved.
Separately, Rac was added to the reaction solution A (pH 7.0) to a concentration of 15 μM, and was allowed to stand on for 30 min to form a GDP-Rac complex. Bodipy-FL-GTP was added to a concentration of 3.6 μM to 100 μL of the reaction solution A that contained the thus-prepared GDP-Rac complex, and equilibrated at 30° C. for 2 minutes. After equilibration, 50 μL of the GEF pretreated product prepared as described above was added and reacted at 30° C.
Changes in fluorescence intensity of Bodipy-FL-GTP in the reaction solutions were monitored using an EnSpire spectrofluorometer (Perkin Elmer) (excitation wavelength: 488 nm, fluorescence wavelength: 514 nm). The measured values were corrected so that the fluorescence intensity at the beginning of the reaction (0 sec) was 0. Then, an approximate curve (hyperbola) was obtained by plotting the calculated correction values on the y-axis and the time (t) on the x-axis using GraphPad Prism5 (GraphPad software), and the slope at t=0 to 10 seconds was defined as the initial velocity of the guanine nucleotide exchange reaction. The IC50 value was calculated taking the initial reaction velocity of the control, to which only a solvent (DMSO) was added, as 100%.
Based on the obtained results, columns A and B of FIG. 1, FIG. 2, FIG. 3-1, and FIG. 3-2 show the results evaluating the inhibitory effect on Rac activation by DOCK1 (DHR-2 domain) (IC50 value), and DOCK1-selective inhibitory effect (DOCK1/DOCK2 selectivity) of each test compound. The inhibitory effect on Rac activation by DOCK1 (DHR-2 domain) (IC50 value) was determined from the reaction inhibition curve plotted using values of Rac activation by the DOCK1 DHR-2 domain in the presence of various concentrations of the test compounds, taking the values of the control as 100%. […]

[2] = tested on: mouse lung carcinoma cell line (3LL cells); assay: Cell invasion inhibition assay (Matrigel invasion chamber); type: cell-based; conditions: 22 hours, DMSO control as 100% invasion
Protocol: In this Pharmacological Test, the inhibitory effect of each test compound on cell invasion response was evaluated using a mouse lung carcinoma cell line (3LL cells), a mouse pancreatic cancer cell line (PANC02 cells), and a human breast cancer cell line (MDA-MB-157 cells). Of these, the mouse lung carcinoma cell line (3LL) is a cancer cell line with mutant Ras (K-Ras (G12C)), and the human breast cancer cell line (MDA-MB-157) is a cancer cell line with mutant Rac (Rac1 (P29S)). The experiments were performed in BD BioCoat Matrigel invasion chambers (BD Biosciences).
Specifically, an upper chamber with a Matrigel-coated membrane insert (8 μm pores) at the bottom was equilibrated with DMEM (serum-free medium) for 120 minutes. Thereafter, 300 μL of a suspension of a cancer cell line in DMEM (serum-free) was placed in the upper chamber while 500 μL of DMEM (with 10 mass % FCS) was placed in the lower chamber. Each test compound dissolved in DMSO at a predetermined concentration was added to both the culture media in the upper and lower chambers. As a control, DMSO alone was added to both the culture media in the upper and lower chambers. In all of the experiments, the final DMSO concentration in the culture media was adjusted to 0.2 mass %.
The resulting products were cultured under 5% CO2 at 37° C. for 22 hours (3LL and PANC02 cells) or 48 hours (MDA-MB-157 cells). Then, the upper chamber was removed, and the culture medium was removed. Thereafter, non-invading cells remaining in the upper chamber were removed using a cotton swab, and the cells remaining outside the bottom of the upper chamber (cells that had invaded into the Matrigel, and passed through the membrane insert) were stained with Diff-Quick (Sysmex). After staining, the membrane inserts with Matrigel were cut out using a scalpel to prepare slides, and the number of invading cells was counted under an optical microscope.
The results were evaluated based on percent cell invasion (%: Invasion) and percent inhibition (%: Inhibition). The percent cell invasion was obtained by converting the number of invading cells in the presence of each test compound into a percentage, taking the number of invading cells in the control test, in which DMSO was added alone, as 100%; and the percent inhibition was obtained by deducting the percent cell invasion from 100.

DOCK1-selective inhibitory effect (DOCK1/DOCK2 selectivity) (DOCK1 (DHR-2 domain); IC50 for DOCK2 divided by IC50 for DOCK1): 2.6
pIC50 (DOCK1 (DHR-2 domain); in vitro GEF assay, Bodipy-FL-GTP, DMSO control as 100%, read-out: inhibitory effect (IC50 value) on Rac activation by DOCK1 (DHR-2 domain)): 5.08
SMILES: O=C(Cn1cc(S(=O)(=O)N2CCCC2)ccc1=O)c1ccc(-c2cccc(C(F)(F)F)c2)cc1 [TBOPP, 1-(2-oxo-2-(3′-(trifluoromethyl)-[1,1′-biphenyl]-4-yl)ethyl)-5-(pyrrolidin-1-ylsulfonyl)pyridin-2(1H)-one, reference compound]
tumor size reduced by, compared to the control group [1]: 21-24%
percent cell invasion inhibition [2]: 95%
